The text below walks through data of patent US20240025906A1 (NEURON23, INC., priority 2022, published 2024).

One experiment has as its target T1, TYK2 JH2 (Homo sapiens, UniProt P29597).
T1 construct: purchased DiscoverX (KINOMEscan KdELECT service); host or cells: E. coli BL21-derived (T7 phage display) or HEK-293
Put plainly: TYK2 JH2 binding assay (KINOMEscan KdELECT competitive binding). The conditions noted are these: TYK2 JH2 domain, KINOMEscan KdELECT (Assay A); read-out: Biochemical TYK2_DiscoverX_JH2_BND_Kd. The method, boiled down:
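Test compounds were titrated in 11 three-fold steps against JH2 fragment captured on ligand-loaded magnetic beads, with 1 h incubation at room temperature and DMSO at 0.9%. Eluted kinase was quantified by qPCR, and Kd was fitted from the dose series.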

The test system of experiment [1] is JAK1/TYK2 pSTAT5 (Tyr694/699) in THP-1 cell line. Kind of experiment: IFNa-stimulated JAK1/TYK2 pSTAT5 (Tyr694/699) inhibition cellular assay, AlphaLISA. Type of experiment: cell-based. Conditions: Homo sapiens; THP-1 cells, IFNa-stimulated, AlphaLISA (Assay B); read-out: Cellular_THP1_IFNa-pSTATS_TYK2. The method, boiled down:
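Compound dilutions were dispensed first, and HBSS-suspended THP-1 cells were added on top (final top concentration 10000 nM, 6-fold series). After 1 h at 37 °C, IFNa (100 ng/mL as added) was applied for 30 min. Cells were then lysed and pSTAT5 was quantified by AlphaLISA.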
(In general: Alpha assays give light when donor and acceptor beads are brought close together.)

Some results are limits rather than exact numbers.

T1 sequence (P29597 589-875 limits assumed): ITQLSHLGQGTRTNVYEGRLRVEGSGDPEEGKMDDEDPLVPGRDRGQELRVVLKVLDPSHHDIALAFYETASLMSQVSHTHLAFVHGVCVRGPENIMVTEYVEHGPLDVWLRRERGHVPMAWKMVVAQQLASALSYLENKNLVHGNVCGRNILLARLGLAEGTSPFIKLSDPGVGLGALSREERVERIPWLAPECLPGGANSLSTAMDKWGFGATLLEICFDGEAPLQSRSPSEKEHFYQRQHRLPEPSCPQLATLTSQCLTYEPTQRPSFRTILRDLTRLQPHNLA

As to `CNc1ncc(-c2ccc(Oc3ccccn3)cc2)c2cc(NC(=O)C3CC3)ncc12` [Example 863, N-(8-(methylamino)-5-(4-(pyridin-2-yloxy)phenyl)-2,7-naphthyridin-3-yl)cyclopropanecarboxamide], the Kd at TYK2 JH2 was no more than 100 nM. Also, the IC50 in experiment [1] is no more than 500 nM.

With `CNc1ncc(-c2ccc(Oc3cccnc3)cc2)c2cc(NC(=O)C3CC3)ncc12` [Example 864, N-(8-(methylamino)-5-(4-(pyridin-3-yloxy)phenyl)-2,7-naphthyridin-3-yl)cyclopropanecarboxamide], the Kd at TYK2 JH2 is no more than 100 nM. Moreover, the IC50 in experiment [1] was no more than 500 nM.

With `CNc1ncc(-c2ccc(Oc3ncn(C)n3)cc2)c2cc(NC(=O)C3CC3)ncc12` [Example 865, N-(5-(4-((1-methyl-1H-1,2,4-triazol-3-yl)oxy)phenyl)-8-(methylamino)-2,7-naphthyridin-3-yl)cyclopropanecarboxamide], the Kd on TYK2 JH2 was no more than 100 nM. For the same compound, the IC50 in experiment [1] is no more than 500 nM.

Consider `CNc1ncc(CCc2ccc3nnn(C)c3c2)c2cc(NC(=O)C3CC3)ncc12` [Example 866, N-(5-(2-(1-methyl-1H-benzo[d][1,2,3]triazol-6-yl)ethyl)-8-(methylamino)-2,7-naphthyridin-3-yl)cyclopropanecarboxamide], for which the Kd at TYK2 JH2 is no more than 100 nM. The IC50 in experiment [1] is no more than 500 nM.

For `CNc1ncc(-c2ccc(OCc3ccncc3)cc2)c2cc(NC(=O)C3CC3)ncc12` [Example 867, N-(8-(methylamino)-5-(4-(pyridin-4-ylmethoxy)phenyl)-2,7-naphthyridin-3-yl)cyclopropanecarboxamide], the Kd at TYK2 JH2 was no more than 100 nM. Moreover, in experiment [1], the IC50 was no more than 500 nM.

As to `CNc1ncc(-c2ccc(COc3ccncc3)cc2)c2cc(NC(=O)C3CC3)ncc12` [Example 868, N-(8-(methylamino)-5-(4-((pyridin-4-yloxy)methyl)phenyl)-2,7-naphthyridin-3-yl)cyclopropanecarboxamide], the Kd at TYK2 JH2 is no more than 100 nM. For the same compound, the IC50 in experiment [1] was no more than 500 nM.

Regarding `CNc1ncc(-c2ccc(Cn3ccc(=O)cc3)cc2)c2cc(NC(=O)C3CC3)ncc12` [Example 869, N-(8-(methylamino)-5-(4-((4-oxopyridin-1(4H)-yl)methyl)phenyl)-2,7-naphthyridin-3-yl)cyclopropanecarboxamide], the Kd at TYK2 JH2 was no more than 100 nM. Also, the IC50 in experiment [1] was greater than 500 nM.

Consider `CNc1ncc(-c2ccc(-c3cnnn3C)cc2)c2cc(NC(=O)C3CC3)ncc12` [Example 870, N-(5-(4-(1-methyl-1H-1,2,3-triazol-5-yl)phenyl)-8-(methylamino)-2,7-naphthyridin-3-yl)cyclopropanecarboxamide], for which the Kd on TYK2 JH2 is no more than 100 nM. For the same compound, in experiment [1], the IC50 was no more than 500 nM.

For `CNc1ncc(-c2ccc(-c3cn(C)nn3)cc2)c2cc(NC(=O)C3CC3)ncc12` [Example 871, N-(5-(4-(1-methyl-1H-1,2,3-triazol-4-yl)phenyl)-8-(methylamino)-2,7-naphthyridin-3-yl)cyclopropanecarboxamide], the Kd at TYK2 JH2 was no more than 100 nM. Also, the IC50 in experiment [1] was no more than 500 nM.

In the case of `CNc1ncc(-c2nn3ccnc3s2)c2cc(NC(=O)C3CC3)ncc12` [Example 872, N-(5-(imidazo[2,1-b][1,3,4]thiadiazol-2-yl)-8-(methylamino)-2,7-naphthyridin-3-yl)cyclopropanecarboxamide], the Kd on TYK2 JH2 was no more than 100 nM. The IC50 in experiment [1] was no more than 500 nM.

On to `CNc1ncc(-c2nn3c(C)ncc3o2)c2cc(NC(=O)C3CC3)ncc12` [Example 873, N-(8-(methylamino)-5-(5-methylimidazo[5,1-b][1,3,4]oxadiazol-2-yl)-2,7-naphthyridin-3-yl)cyclopropanecarboxamide], for which the Kd at TYK2 JH2 was no more than 100 nM. For the same compound, the IC50 in experiment [1] is no more than 500 nM.

Consider `CNc1ncc(-c2nc3c(o2)CCC(OC)C3)c2cc(NC(=O)C3CC3)ncc12` (stereo not drawn) [Example 874, N-(5-(5-methoxy-4,5,6,7-tetrahydrobenzo[d]oxazol-2-yl)-8-(methylamino)-2,7-naphthyridin-3-yl)cyclopropanecarboxamide], for which the Kd at TYK2 JH2 is no more than 100 nM. Besides, the IC50 in experiment [1] is no more than 500 nM.

`CNc1ncc(-c2cc3cc(OC)ccn3n2)c2cc(NC(=O)C3CC3)ncc12` [Example 875, N-(5-(5-methoxypyrazolo[1,5-a]pyridin-2-yl)-8-(methylamino)-2,7-naphthyridin-3-yl)cyclopropanecarboxamide]: the Kd at TYK2 JH2 is no more than 100 nM. The IC50 in experiment [1] was no more than 500 nM.

For the compound `CCNc1ncc(-c2cc3ccc(N4CCOCC4)cn3n2)c2cc(NC(=O)C3CC3)ncc12` [Example 876, N-(8-(ethylamino)-5-(6-morpholinopyrazolo[1,5-a]pyridin-2-yl)-2,7-naphthyridin-3-yl)cyclopropanecarboxamide], the Kd on TYK2 JH2 is no more than 100 nM. For the same compound, in experiment [1], the IC50 was no more than 500 nM.

As for `CNc1ncc(-c2cc3ccc(OC)cn3n2)c2cc(NC(=O)[C@H]3C[C@H]3C)ncc12` [Example 877, (1S,2R)—N-(5-(6-methoxypyrazolo[1,5-a]pyridin-2-yl)-8-(methylamino)-2,7-naphthyridin-3-yl)-2-methylcyclopropane-1-carboxamide], the Kd at TYK2 JH2 is no more than 100 nM. In addition, the IC50 in experiment [1] was no more than 500 nM.

Take `CNc1ncc(-c2cnc3ccc(OC)cn23)c2cc(NC(=O)[C@H]3C[C@H]3C)ncc12` [Example 878, (1S,2R)—N-(5-(6-methoxyimidazo[1,2-a]pyridin-3-yl)-8-(methylamino)-2,7-naphthyridin-3-yl)-2-methylcyclopropane-1-carboxamide]: the Kd at TYK2 JH2 was no more than 100 nM. For the same compound, the IC50 in experiment [1] was greater than 500 nM.

In the case of `CNc1ncc(-c2cn3cc(OC)ccc3n2)c2cc(NC(=O)C3CC3)ncc12` [Example 879, N-(5-(6-methoxyimidazo[1,2-a]pyridin-2-yl)-8-(methylamino)-2,7-naphthyridin-3-yl)cyclopropanecarboxamide], the Kd on TYK2 JH2 was no more than 100 nM. Besides, in experiment [1], the IC50 was no more than 500 nM.

For the compound `CNc1ncc(-c2cn3cc(N4CCOCC4)ccc3n2)c2cc(NC(=O)C3CC3)ncc12` [Example 880, N-(8-(methylamino)-5-(6-morpholinoimidazo[1,2-a]pyridin-2-yl)-2,7-naphthyridin-3-yl)cyclopropanecarboxamide], at TYK2 JH2, the Kd is no more than 100 nM. Besides, in experiment [1], the IC50 was no more than 500 nM.

Consider `CNc1ncc(-c2cc(-c3ccccc3)[nH]n2)c2cc(NC(=O)C3CC3)ncc12` [Example 881, N-(8-(methylamino)-5-(5-phenyl-1H-pyrazol-3-yl)-2,7-naphthyridin-3-yl)cyclopropanecarboxamide], for which, at TYK2 JH2, the Kd was no more than 100 nM. The IC50 in experiment [1] is greater than 500 nM.

For `CNc1ncc(C#Cc2ccc3nnn(C)c3c2)c2cc(NC(=O)C3CC3)nnc12` [Example 882, N-(5-((1-methyl-1H-benzo[d][1,2,3]triazol-6-yl)ethynyl)-8-(methylamino)pyrido[3,4-c]pyridazin-3-yl)cyclopropanecarboxamide], the Kd on TYK2 JH2 is no more than 100 nM. For the same compound, the IC50 in experiment [1] is no more than 500 nM.

As for `CNc1ncc(C#Cc2ccc(N3CCO[C@H](C)C3)cc2)c2cc(NC(=O)C3CC3)nnc12` [Example 883, (R)—N-(8-(methylamino)-5-((4-(2-methylmorpholino)phenyl)ethynyl)pyrido[3,4-c]pyridazin-3-yl)cyclopropanecarboxamide], at TYK2 JH2, the Kd is no more than 100 nM. Also, in experiment [1], the IC50 is no more than 500 nM.

On to `CNc1ncc(C#Cc2ccc(OC)cn2)c2cc(NC(=O)C3CC3)nnc12` [Example 884, N-(5-((5-methoxypyridin-2-yl)ethynyl)-8-(methylamino)pyrido[3,4-c]pyridazin-3-yl)cyclopropanecarboxamide], for which, on TYK2 JH2, the Kd is no more than 100 nM. For the same compound, the IC50 in experiment [1] was no more than 500 nM.

With `CNc1ncc(-c2nc3ccc(N4CCOCC4)cn3n2)c2cc(NC(=O)C3CC3)nnc12` [Example 885, N-(8-(methylamino)-5-(6-morpholino-[1,2,4]triazolo[1,5-a]pyridin-2-yl)pyrido[3,4-c]pyridazin-3-yl)cyclopropanecarboxamide], on TYK2 JH2, the Kd is no more than 100 nM. In addition, in experiment [1], the IC50 was no more than 500 nM.

Take `CNc1ncc(-c2nc3ccc(N4CCOCC4)cn3n2)c2cc(NC(=O)C3(F)CC3)nnc12` [Example 886, 1-fluoro-N-(8-(methylamino)-5-(6-morpholino-[1,2,4]triazolo[1,5-a]pyridin-2-yl)pyrido[3,4-c]pyridazin-3-yl)cyclopropane-1-carboxamide]: on TYK2 JH2, the Kd was no more than 100 nM. Further, the IC50 in experiment [1] is no more than 500 nM.

As for `CNc1ncc(-c2nc3c(F)cccn3n2)c2cc(NC(=O)C3CC3)nnc12` [Example 887, N-(5-(8-fluoro-[1,2,4]triazolo[1,5-a]pyridin-2-yl)-8-(methylamino)pyrido[3,4-c]pyridazin-3-yl)cyclopropanecarboxamide], on TYK2 JH2, the Kd is no more than 100 nM. For the same compound, in experiment [1], the IC50 is no more than 500 nM.

For `CNc1ncc(-c2nc3cc(OC)ccc3o2)c2cc(NC(=O)C3CC3)nnc12` [Example 888, N-(5-(5-methoxybenzo[d]oxazol-2-yl)-8-(methylamino)pyrido[3,4-c]pyridazin-3-yl)cyclopropanecarboxamide], the Kd at TYK2 JH2 is no more than 100 nM. Besides, in experiment [1], the IC50 is no more than 500 nM.

Turning to `CNc1ncc(C#Cc2ccc(OC)cn2)c2c(Cl)c(NC(=O)C3CC3)ncc12` [Example 889, N-(4-chloro-5-((5-methoxypyridin-2-yl)ethynyl)-8-(methylamino)-2,7-naphthyridin-3-yl)cyclopropanecarboxamide], at TYK2 JH2, the Kd is no more than 100 nM. The IC50 in experiment [1] is greater than 500 nM.
